One block for each compound: values may come before it.
How the values were obtained:
[1] = molecular target: T1, Estrogen-related receptor gamma (Homo sapiens, UniProt P62508)
T1 sequence (P62508 whole entry): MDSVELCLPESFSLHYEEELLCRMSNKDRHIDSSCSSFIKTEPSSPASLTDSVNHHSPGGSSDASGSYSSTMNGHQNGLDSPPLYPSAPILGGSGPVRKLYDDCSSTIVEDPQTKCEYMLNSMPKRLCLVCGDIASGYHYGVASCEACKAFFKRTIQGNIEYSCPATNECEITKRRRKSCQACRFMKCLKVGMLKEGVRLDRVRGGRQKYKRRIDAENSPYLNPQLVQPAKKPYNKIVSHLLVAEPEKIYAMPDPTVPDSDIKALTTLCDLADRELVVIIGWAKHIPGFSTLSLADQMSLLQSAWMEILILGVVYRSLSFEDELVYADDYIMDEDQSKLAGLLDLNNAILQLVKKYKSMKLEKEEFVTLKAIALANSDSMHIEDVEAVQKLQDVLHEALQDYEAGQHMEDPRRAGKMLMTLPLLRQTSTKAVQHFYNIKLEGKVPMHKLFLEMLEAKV
Description: Inhibition of fluorescien-conjugated coactivator PGC1a binding to GST-tagged human ERRgamma LBD after 1 hr by TR-FRET assay

in vitro [2] = conditions: rat, liver microsomes
Description: Metabolic stability in rat liver microsomes assessed as compound remaining at 1 uM after 30 mins in presence of NADPH by LC-MS/MS analysis

[3] = molecular target: T1, Estrogen-related receptor gamma; remark: listed apart in the source
Description: Inverse agonist activity at ERRgamma (unknown origin) expressed in human AD293 cells after 24 hrs by beta-galactosidase/luciferase reporter gene assay

CYP2C9 = CYP2C9 (Homo sapiens, UniProt P11712); experiment: Inhibition of CYP2C9 in human liver microsomes assessed as remaining activity by measuring tolbutamide 4-hydroxylase activity at 10 uM pre-incubated for 5 mins followed by NADPH regenerating system addition by LC-MS/MS analysis relative to control; type: ADME; conditions: probe tolbutamide (4-hydroxylation), read-out: Activity
Estrogen receptor = molecular target: T2, Estrogen receptor (Homo sapiens, UniProt P03372)
T2 sequence (P03372 whole entry): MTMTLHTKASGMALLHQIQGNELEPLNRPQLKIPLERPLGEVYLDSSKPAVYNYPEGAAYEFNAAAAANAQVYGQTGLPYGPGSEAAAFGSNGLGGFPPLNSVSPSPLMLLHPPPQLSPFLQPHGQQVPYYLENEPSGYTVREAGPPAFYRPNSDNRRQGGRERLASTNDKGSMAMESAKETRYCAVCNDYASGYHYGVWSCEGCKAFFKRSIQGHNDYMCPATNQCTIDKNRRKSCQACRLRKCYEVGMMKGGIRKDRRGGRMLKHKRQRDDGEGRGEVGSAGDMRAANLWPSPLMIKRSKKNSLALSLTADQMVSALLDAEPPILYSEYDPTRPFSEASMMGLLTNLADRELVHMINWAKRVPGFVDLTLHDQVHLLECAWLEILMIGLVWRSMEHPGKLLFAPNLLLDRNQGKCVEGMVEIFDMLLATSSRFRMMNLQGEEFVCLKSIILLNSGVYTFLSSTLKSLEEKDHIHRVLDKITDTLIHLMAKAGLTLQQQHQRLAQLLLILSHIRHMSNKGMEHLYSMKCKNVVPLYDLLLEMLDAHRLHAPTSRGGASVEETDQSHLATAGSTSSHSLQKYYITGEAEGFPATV
Description: Inhibition of fluorescien-conjugated coactivator PGC1a binding to ERalpha (unknown origin) after 1 hr by TR-FRET assay

in vitro [4] = conditions: mouse, liver microsomes
Description: Metabolic stability in mouse liver microsomes assessed as compound remaining at 1 uM after 30 mins in presence of NADPH by LC-MS/MS analysis

CYP3A4 = CYP3A4 (Homo sapiens, UniProt P08684); experiment: Inhibition of CYP3A4 in human liver microsomes assessed as remaining activity by measuring midazolam 1'-hydroxylase activity at 10 uM pre-incubated for 5 mins followed by NADPH regenerating system addition by LC-MS/MS analysis relative to control; type: ADME; conditions: probe midazolam (1'-hydroxylation), read-out: Activity
CYP2D6 = CYP2D6 (Homo sapiens, UniProt P10635); experiment: Inhibition of CYP2D6 in human liver microsomes assessed as remaining activity by measuring dextromethorphan O-demethylase activity at 10 uM pre-incubated for 5 mins followed by NADPH regenerating system addition by LC-MS/MS analysis relative to control; type: ADME; conditions: probe dextromethorphan (O-demethylation), read-out: Activity
in vitro [5] = conditions: human, liver microsomes
Description: Metabolic stability in human liver microsomes assessed as compound remaining at 1 uM after 30 mins in presence of NADPH by LC-MS/MS analysis

[6] = molecular target: T3, Steroid hormone receptor ERR2 (Homo sapiens, UniProt O95718); experiment: Inhibition of fluorescien-conjugated coactivator PGC1a binding to ERRbeta (unknown origin) after 1 hr by TR-FRET assay
T3 sequence (O95718 whole entry): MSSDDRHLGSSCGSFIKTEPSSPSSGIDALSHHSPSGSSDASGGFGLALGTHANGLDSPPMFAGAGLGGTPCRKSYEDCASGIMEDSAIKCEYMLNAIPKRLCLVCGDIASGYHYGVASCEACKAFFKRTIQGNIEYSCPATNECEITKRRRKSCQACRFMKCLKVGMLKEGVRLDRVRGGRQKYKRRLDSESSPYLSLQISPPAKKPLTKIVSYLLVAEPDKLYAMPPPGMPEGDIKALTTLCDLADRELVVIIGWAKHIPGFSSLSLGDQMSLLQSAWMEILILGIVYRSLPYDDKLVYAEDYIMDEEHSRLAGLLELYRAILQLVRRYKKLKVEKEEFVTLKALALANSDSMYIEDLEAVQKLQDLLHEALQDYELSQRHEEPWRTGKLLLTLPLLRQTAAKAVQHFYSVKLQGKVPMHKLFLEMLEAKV

[7] = Metabolic stability in dog liver microsomes assessed as compound remaining at 1 uM after 30 mins in presence of NADPH by LC-MS/MS analysis; type: ADME, Canis lupus familiaris; conditions: read-out: Stability
[8] = Permeability of the compound in PBS at pH 7.4 at 10 uM after 5 hrs by LC-MS/MS analysis; type: ADME; conditions: not told, read-out: permeability
CYP2C19 = CYP2C19 (Homo sapiens, UniProt P33261); experiment: Inhibition of CYP2C19 in human liver microsomes assessed as remaining activity by measuring S-mephenytoin 4-hydroxylase activity at 10 uM pre-incubated for 5 mins followed by NADPH regenerating system addition by LC-MS/MS analysis relative to control; type: ADME; conditions: probe S-mephenytoin (4-hydroxylation), read-out: Activity
[9] = molecular target: T4, Steroid hormone receptor ERR1 (Homo sapiens, UniProt P11474); experiment: Inhibition of fluorescien-conjugated coactivator PGC1a binding to ERRalpha (unknown origin) after 1 hr by TR-FRET assay
T4 sequence (P11474 whole entry): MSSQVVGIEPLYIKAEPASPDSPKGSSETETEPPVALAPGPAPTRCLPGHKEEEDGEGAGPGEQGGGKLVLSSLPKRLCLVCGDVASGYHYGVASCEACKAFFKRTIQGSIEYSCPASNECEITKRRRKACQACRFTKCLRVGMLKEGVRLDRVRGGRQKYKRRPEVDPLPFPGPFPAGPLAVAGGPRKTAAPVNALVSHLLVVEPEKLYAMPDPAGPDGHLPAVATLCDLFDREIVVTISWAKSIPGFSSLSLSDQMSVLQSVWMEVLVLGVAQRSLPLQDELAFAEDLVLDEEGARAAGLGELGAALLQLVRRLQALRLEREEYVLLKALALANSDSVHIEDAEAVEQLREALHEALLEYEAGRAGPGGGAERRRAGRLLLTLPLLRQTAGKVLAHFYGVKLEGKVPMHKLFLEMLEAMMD

CYP1A2 = molecular target: T5, CYP1A2 (Homo sapiens, UniProt P05177); experiment: Inhibition of CYP1A2 in human liver microsomes assessed as remaining activity by measuring phenacetin O-deethylase activity at 10 uM pre-incubated for 5 mins followed by NADPH regenerating system addition by LC-MS/MS analysis relative to control; type: ADME; conditions: probe phenacetin (O-deethylation), read-out: Activity
T5 sequence (P05177 whole entry): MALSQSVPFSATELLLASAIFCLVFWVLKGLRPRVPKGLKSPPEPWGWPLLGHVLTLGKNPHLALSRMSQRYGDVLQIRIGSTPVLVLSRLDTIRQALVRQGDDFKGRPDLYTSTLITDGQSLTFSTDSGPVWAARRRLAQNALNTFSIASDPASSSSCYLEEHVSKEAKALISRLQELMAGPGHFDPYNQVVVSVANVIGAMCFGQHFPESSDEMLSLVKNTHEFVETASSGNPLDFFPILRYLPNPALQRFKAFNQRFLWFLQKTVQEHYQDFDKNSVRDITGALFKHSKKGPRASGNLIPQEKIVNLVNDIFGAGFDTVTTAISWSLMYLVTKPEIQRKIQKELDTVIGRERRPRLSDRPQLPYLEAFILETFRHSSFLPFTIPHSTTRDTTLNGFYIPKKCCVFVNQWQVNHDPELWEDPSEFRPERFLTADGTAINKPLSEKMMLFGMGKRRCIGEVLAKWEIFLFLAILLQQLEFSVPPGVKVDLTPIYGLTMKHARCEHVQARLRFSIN

Sequence of CYP3A4 (P08684 whole entry): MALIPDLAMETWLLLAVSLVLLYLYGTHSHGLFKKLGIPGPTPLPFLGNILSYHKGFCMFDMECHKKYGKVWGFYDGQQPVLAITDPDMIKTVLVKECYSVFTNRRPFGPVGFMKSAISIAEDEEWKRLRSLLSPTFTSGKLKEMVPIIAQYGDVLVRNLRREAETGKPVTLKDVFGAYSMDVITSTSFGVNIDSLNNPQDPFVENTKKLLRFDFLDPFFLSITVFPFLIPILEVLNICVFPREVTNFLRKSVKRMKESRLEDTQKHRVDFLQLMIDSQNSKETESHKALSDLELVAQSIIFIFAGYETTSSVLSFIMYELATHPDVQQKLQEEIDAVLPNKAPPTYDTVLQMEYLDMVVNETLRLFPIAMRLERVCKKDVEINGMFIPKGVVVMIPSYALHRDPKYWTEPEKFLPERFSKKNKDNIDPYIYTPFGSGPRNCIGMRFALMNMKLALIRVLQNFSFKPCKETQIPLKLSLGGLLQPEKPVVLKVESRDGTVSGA
Sequence of CYP2D6 (P10635 whole entry): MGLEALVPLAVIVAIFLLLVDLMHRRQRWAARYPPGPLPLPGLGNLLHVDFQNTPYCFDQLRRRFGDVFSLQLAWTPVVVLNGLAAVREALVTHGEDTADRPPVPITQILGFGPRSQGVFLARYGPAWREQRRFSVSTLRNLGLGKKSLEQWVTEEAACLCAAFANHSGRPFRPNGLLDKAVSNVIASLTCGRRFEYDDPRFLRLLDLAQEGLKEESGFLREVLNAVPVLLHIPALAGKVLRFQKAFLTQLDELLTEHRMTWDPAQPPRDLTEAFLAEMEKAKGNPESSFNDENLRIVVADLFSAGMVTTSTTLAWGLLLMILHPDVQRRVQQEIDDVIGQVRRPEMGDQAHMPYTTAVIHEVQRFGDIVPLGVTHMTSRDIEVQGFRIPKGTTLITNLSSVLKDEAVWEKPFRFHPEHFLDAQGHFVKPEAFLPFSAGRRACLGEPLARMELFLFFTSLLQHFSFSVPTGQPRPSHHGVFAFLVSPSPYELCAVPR
Sequence of CYP2C9 (P11712 whole entry): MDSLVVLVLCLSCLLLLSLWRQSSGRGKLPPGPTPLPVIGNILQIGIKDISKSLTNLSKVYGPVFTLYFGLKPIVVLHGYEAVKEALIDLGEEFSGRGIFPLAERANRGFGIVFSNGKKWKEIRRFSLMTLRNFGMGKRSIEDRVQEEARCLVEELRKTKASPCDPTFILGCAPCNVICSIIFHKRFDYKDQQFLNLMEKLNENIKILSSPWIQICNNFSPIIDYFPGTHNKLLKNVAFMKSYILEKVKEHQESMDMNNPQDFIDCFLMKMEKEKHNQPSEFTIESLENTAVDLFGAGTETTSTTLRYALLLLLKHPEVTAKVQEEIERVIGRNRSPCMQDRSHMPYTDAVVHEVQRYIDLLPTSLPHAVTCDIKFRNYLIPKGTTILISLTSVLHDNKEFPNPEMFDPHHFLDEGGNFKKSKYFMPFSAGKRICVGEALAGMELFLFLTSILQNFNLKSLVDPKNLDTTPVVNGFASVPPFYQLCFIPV
Sequence of CYP2C19 (P33261 whole entry): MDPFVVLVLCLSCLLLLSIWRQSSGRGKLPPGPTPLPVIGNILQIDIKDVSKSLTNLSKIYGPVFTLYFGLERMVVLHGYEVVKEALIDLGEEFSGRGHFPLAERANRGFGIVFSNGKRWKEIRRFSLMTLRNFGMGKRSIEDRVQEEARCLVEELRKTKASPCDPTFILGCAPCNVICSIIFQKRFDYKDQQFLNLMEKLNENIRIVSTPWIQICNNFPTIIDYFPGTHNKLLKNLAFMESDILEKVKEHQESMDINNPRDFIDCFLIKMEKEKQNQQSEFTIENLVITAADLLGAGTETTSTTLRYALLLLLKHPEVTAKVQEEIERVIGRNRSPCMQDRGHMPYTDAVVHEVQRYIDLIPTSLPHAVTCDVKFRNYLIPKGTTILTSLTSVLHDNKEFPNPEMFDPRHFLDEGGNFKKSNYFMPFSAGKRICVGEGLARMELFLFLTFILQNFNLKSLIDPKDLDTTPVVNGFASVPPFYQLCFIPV

SMILES: CN(C)CCOc1ccc(/C(=C(/CCCO)c2ccccc2)c2ccc(C(F)(F)F)cc2)cc1
IC50 [1]: 1300 nM

SMILES: Cc1ccc(/C(=C(\CCCO)c2cccc(F)c2)c2ccc(OCCN(C)C)cc2)cc1
IC50 [1]: 500 nM

SMILES: COc1ccc(/C(=C(\CCCO)c2ccc3cnn(C)c3c2)c2ccc(OCCN(C)C)cc2)cc1
IC50 [1]: > 10000 nM

SMILES: CN(C)CCOc1ccc(/C(=C(/CCCF)c2ccccc2)c2ccc(Br)cc2)cc1
IC50 [1]: 480 nM

SMILES: CN(C)CCOc1ccc(/C(=C(/CCCO)c2ccccc2)c2ccc(F)cc2F)cc1
IC50 [1]: 6700 nM

SMILES: CN(C)CCOc1ccc(/C(=C(/CCC(F)F)c2ccccc2)c2ccc(O)cc2)cc1.Cl
remaining at 0.5 h, 1 µM (in vitro [2]): 66% | IC50 [3]: 111 nM | activity at 10 µM (CYP2C9): 60% | remaining at 0.5 h, 1 µM (in vitro [4]): 91% | activity at 10 µM (CYP3A4): 11% | activity at 10 µM (CYP2D6): 12% | remaining at 0.5 h, 1 µM (in vitro [5]): 77% | IC50 [6]: > 10000 nM | remaining at 0.5 h, 1 µM [7]: 73% | Papp at 5 h, 10 µM [8]: 0.54 ×10⁻⁶ cm/s | activity at 10 µM (CYP2C19): 11% | IC50 [9]: 8100 nM | activity at 10 µM (CYP1A2): 14%

More lines, now with the values ahead:

remaining at 0.5 h, 1 µM (in vitro [2]): 30% | IC50 [3]: 719 nM | activity at 10 µM (CYP2C9): 86% | IC50 (Estrogen receptor): > 10000 nM | remaining at 0.5 h, 1 µM (in vitro [4]): 35% | activity at 10 µM (CYP3A4): 88% | activity at 10 µM (CYP2D6): 99% | remaining at 0.5 h, 1 µM (in vitro [5]): 42% | IC50 [6]: 6950 nM | remaining at 0.5 h, 1 µM [7]: 5.8% | IC50 [1]: 117 nM | Papp at 5 h, 10 µM [8]: 6.52 ×10⁻⁶ cm/s | activity at 10 µM (CYP2C19): 61% | IC50 [9]: > 10000 nM | activity at 10 µM (CYP1A2): > 100%
SMILES: CN(C)CCOc1ccc(/C(=C(/CCCO)c2ccccc2)c2ccc(Br)cc2)cc1.Cl

IC50 [1]: > 10000 nM
SMILES: CN(C)CCOc1ccc(/C(=C(/CCCO)c2ccccc2)c2cccnc2)cc1

IC50 [1]: 1500 nM
SMILES: CN(C)CCOc1ccc(/C(=C(/CCCO)c2ccccc2)c2ccccc2)cc1

IC50 [1]: > 10000 nM
SMILES: CN(C)CCOc1ccc(/C(=C(/CCCO)c2ccccc2)c2ccncc2)cc1

remaining at 0.5 h, 1 µM (in vitro [2]): 26% | activity at 10 µM (CYP2C9): 73% | activity at 10 µM (CYP3A4): 83% | activity at 10 µM (CYP2D6): 82% | remaining at 0.5 h, 1 µM (in vitro [5]): 43% | Papp at 5 h, 10 µM [8]: 0.43 ×10⁻⁶ cm/s | activity at 10 µM (CYP2C19): 78% | activity at 10 µM (CYP1A2): 84%
SMILES: CN(C)CCOc1ccc(/C(=C(/CCCO)c2ccccc2)c2ccc(O)cc2)cc1.Cl

IC50 [1]: > 10000 nM
SMILES: CN(C)CCOc1ccc(/C(=C(/CCCO)c2cccnc2)c2ccccc2)cc1

— ChEMBL document CHEMBL3856205, “Synthesis and biological evaluation of novel 4-hydroxytamoxifen analogs as estrogen-related receptor gamma inverse agonists” (Eur J Med Chem, 2016)
